Reference: patent US20180312930A1, “METHOD FOR ANALYZING A SAMPLE TO DETECT THE PRESENCE OF SULPHITE-RESISTANT YEASTS OF THE BRETTANOMYCES BRUXELLENSIS SPECIES AND KIT FOR IMPLEMENTING SAME” (UNIVERSITE DE BORDEAUX, priority 2015, published 2018)

Tests used:
Assay in all cases: capacity of strains to grow in the presence of sulphur dioxide
Assay type in all cases: cell-based
[1] = system: Brettanomyces bruxellensis strains of the oenological diploid group; settings: 14 days of culture, 17 strains tested
Method: (§1) The 33 strains of Brettanomyces bruxellensis are cultivated in a medium in the absence or the presence of different concentrations of sulphur dioxide SO2 in the culture medium (0 mg/L, 0.2 mg/L, 0.4 mg/L and 0.6 mg/L).
(§2) After 14 days of culture, the capacity of the strains to grow in the different media is evaluated.

[2] = system: Brettanomyces bruxellensis strains of the oenological triploid group; settings: 14 days of culture, 8 strains tested
Method: as §1, §2

[3] = system: Brettanomyces bruxellensis strains of the beer triploid group; settings: 14 days of culture, 8 strains tested
Method: as §1, §2

[4] = 0.2 mg/L active SO2 in the culture medium
[5] = 0.4 mg/L active SO2 in the culture medium
[6] = 0.6 mg/L active SO2 in the culture medium

For `O=S=O` [sulphur dioxide], the “Number of strains with the capacity to grow” value (“Number of strains” for short) [1, 4] was 6, the “Number of strains” value [1, 5] was 1 and the “Number of strains” value [1, 6] was 0. For the same molecule, the “Number of strains” value [2, 4] was 8, the “Number of strains” value [2, 5] was 8 and the “Number of strains” value [2, 6] was 4. The “Number of strains” value [3, 4] was 3, the “Number of strains” value [3, 5] was 0 and the “Number of strains” value [3, 6] was 0.
